# Results as given in patent US9029403B2, “Treatment of ovarian cancer with benzylidenebenzohydrazides” (Memorial Sloan-Kettering Cancer Center, priority 2011, dated 2015).
# Test system: NSG mice
# Assay: In vivo toxicity in NSG mice
# Settings: intraperitoneal, 1, 2.5, 5, 10, 20 or 40 mg/kg, once or three times a week for 4 weeks
# Experimental: The compound designated example 10 above was tested in vivo for toxicity in NSG mice. As used herein, NSG and NSG mice mean the NOD scid gamma (NSG) mice, or an equivalent, available from The Jackson Laboratory and which are the NOD.Cg-Prkdc^scid I12rg^tm1Wj1/SzJ JAX® Mice strain. The NSG mice were injected intraperitoneally with 1, 2.5, 5, 10, 20 or 40 mg/kg of the compound designated example 10 above for once or three times a week for 4 weeks.
smiles,measurement,value
Cc1ccc(C(=O)N/N=C/c2c(O)ccc3ccccc23)cn1 [example 10],overt toxicity,no overt toxicity
